# Assays:
# Experiment in all cases: relative viability (nuclei count vs DMSO), 5 days (fraction); higher = more cells survive
# [1] = tested on: COR-L 105
# Method in brief: (§1)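 Relative viability divides the nuclei count in treated wells by that in vehicle wells. Lung cancer cell lines were seeded in 1536-well plates, dosed by pin tool the next day, and fixed and stained after 5 days in one step with final 0.05% Triton X-100, 1% formaldehyde and 1 ug/ml Hoechst. Dosing was a single drug or a fixed anchor-drug dose plus five library-drug doses (not always all listed) in √10 steps, and values are medians of duplicate plates imaged at 4×.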
# [2] = tested on: PC-14
# Method in brief: as §1
# [3] = tested on: NCI-H1734
# Method in brief: as §1
# [4] = tested on: NCI-H2228
# Method in brief: as §1
# [5] = tested on: NCI-H1395
# Method in brief: as §1
# [6] = tested on: LU99A
# Method in brief: as §1
# [7] = tested on: HCC-366
# Method in brief: as §1
# [8] = tested on: NCI-H520
# Method in brief: as §1
# [9] = tested on: NCI-H1666
# Method in brief: as §1
# [10] = tested on: LC-2-ad
# Method in brief: as §1
# [11] = tested on: PC-3 [JPC-3]
# Method in brief: as §1
# [12] = tested on: NCI-H1944
# Method in brief: as §1
# [13] = tested on: NCI-H838
# Method in brief: as §1
# [14] = tested on: HARA
# Method in brief: as §1
# [15] = tested on: NCI-H1975
# Method in brief: as §1
# [16] = tested on: HCC-15
# Method in brief: as §1
# [17] = tested on: NCI-H1993
# Method in brief: as §1
# [18] = tested on: H3255
# Method in brief: as §1
# [19] = tested on: NCI-H3122
# Method in brief: as §1
# [20] = tested on: NCI-H661
# Method in brief: as §1
# [21] = tested on: SK-LU-1
# Method in brief: as §1
# [22] = tested on: CAL-12T
# Method in brief: as §1
# [23] = tested on: NCI-H647
# Method in brief: as §1
structure (smiles),measurement,setting,value
O=c1[nH]c2ccccc2n1C1CCN(CCCC(c2ccc(F)cc2)c2ccc(F)cc2)CC1 [Pimozide] + O=C(CCCCCCC(=O)Nc1ccccc1)NO [Vorinostat] (partner 1 µM),relative viability,[1]; first compound 0.08 µM,0.702
same,relative viability,[1]; first compound 0.253 µM,0.767
same,relative viability,[1]; first compound 0.8 µM,0.821
same,relative viability,[1]; first compound 2.53 µM,0.833
same,relative viability,[1]; first compound 8 µM,0.751
same,relative viability,[2]; first compound 0.253 µM,0.711
same,relative viability,[2]; first compound 0.8 µM,0.684
same,relative viability,[2]; first compound 2.53 µM,0.713
same,relative viability,[2]; first compound 8 µM,0.701
same,relative viability,[3]; first compound 0.08 µM,0.841
same,relative viability,[3]; first compound 0.253 µM,0.739
same,relative viability,[3]; first compound 0.8 µM,0.569
same,relative viability,[3]; first compound 2.53 µM,0.763
same,relative viability,[3]; first compound 8 µM,0.847
same,relative viability,[4]; first compound 0.08 µM,0.623
same,relative viability,[4]; first compound 0.253 µM,0.668
same,relative viability,[4]; first compound 0.8 µM,0.668
same,relative viability,[4]; first compound 2.53 µM,0.677
same,relative viability,[4]; first compound 8 µM,0.318
same,relative viability,[5]; first compound 0.08 µM,0.696
same,relative viability,[5]; first compound 0.253 µM,0.607
same,relative viability,[5]; first compound 0.8 µM,0.629
same,relative viability,[5]; first compound 2.53 µM,0.711
same,relative viability,[5]; first compound 8 µM,0.628
same,relative viability,[6]; first compound 0.08 µM,0.595
same,relative viability,[6]; first compound 0.8 µM,0.418
same,relative viability,[6]; first compound 2.53 µM,0.5
same,relative viability,[6]; first compound 8 µM,0.537
same,relative viability,[7]; first compound 0.08 µM,0.457
same,relative viability,[7]; first compound 0.253 µM,0.334
same,relative viability,[7]; first compound 0.8 µM,0.142
same,relative viability,[7]; first compound 2.53 µM,0.29
same,relative viability,[7]; first compound 8 µM,0.309
same,relative viability,[8]; first compound 0.08 µM,0.727
same,relative viability,[8]; first compound 0.253 µM,0.663
same,relative viability,[8]; first compound 0.8 µM,0.671
same,relative viability,[8]; first compound 2.53 µM,0.685
same,relative viability,[8]; first compound 8 µM,0.65
same,relative viability,[9]; first compound 0.08 µM,1.09
same,relative viability,[9]; first compound 0.253 µM,0.905
same,relative viability,[9]; first compound 0.8 µM,0.924
same,relative viability,[9]; first compound 2.53 µM,0.991
same,relative viability,[9]; first compound 8 µM,1.02
same,relative viability,[10]; first compound 0.08 µM,0.731
same,relative viability,[10]; first compound 0.253 µM,0.661
same,relative viability,[10]; first compound 0.8 µM,0.499
same,relative viability,[10]; first compound 2.53 µM,0.653
same,relative viability,[10]; first compound 8 µM,0.655
same,relative viability,[11]; first compound 0.253 µM,0.763
same,relative viability,[11]; first compound 0.8 µM,0.716
same,relative viability,[11]; first compound 2.53 µM,0.882
same,relative viability,[11]; first compound 8 µM,0.726
same,relative viability,[12]; first compound 0.08 µM,0.563
same,relative viability,[12]; first compound 2.53 µM,0.636
same,relative viability,[12]; first compound 8 µM,0.47
same,relative viability,[13]; first compound 0.08 µM,0.745
same,relative viability,[13]; first compound 0.253 µM,0.716
same,relative viability,[13]; first compound 0.8 µM,0.663
same,relative viability,[13]; first compound 2.53 µM,0.702
same,relative viability,[13]; first compound 8 µM,0.705
same,relative viability,[14]; first compound 0.08 µM,0.433
same,relative viability,[14]; first compound 0.253 µM,0.477
same,relative viability,[14]; first compound 0.8 µM,0.519
same,relative viability,[14]; first compound 2.53 µM,0.484
same,relative viability,[14]; first compound 8 µM,0.399
same,relative viability,[15]; first compound 0.08 µM,0.746
same,relative viability,[15]; first compound 0.253 µM,0.676
same,relative viability,[15]; first compound 0.8 µM,0.672
same,relative viability,[15]; first compound 2.53 µM,0.696
same,relative viability,[15]; first compound 8 µM,0.563
same,relative viability,[16]; first compound 0.08 µM,0.828
same,relative viability,[16]; first compound 0.253 µM,0.746
same,relative viability,[16]; first compound 0.8 µM,0.83
same,relative viability,[16]; first compound 2.53 µM,0.788
same,relative viability,[16]; first compound 8 µM,0.703
same,relative viability,[17]; first compound 0.08 µM,0.502
same,relative viability,[17]; first compound 0.253 µM,0.966
same,relative viability,[17]; first compound 0.8 µM,0.68
same,relative viability,[17]; first compound 2.53 µM,0.857
same,relative viability,[17]; first compound 8 µM,0.533
same,relative viability,[18]; first compound 0.253 µM,0.699
same,relative viability,[18]; first compound 0.8 µM,0.714
same,relative viability,[18]; first compound 2.53 µM,0.843
same,relative viability,[18]; first compound 8 µM,0.808
same,relative viability,[19]; first compound 0.08 µM,0.924
same,relative viability,[19]; first compound 0.253 µM,0.951
same,relative viability,[19]; first compound 0.8 µM,0.81
same,relative viability,[19]; first compound 2.53 µM,0.724
same,relative viability,[19]; first compound 8 µM,0.847
same,relative viability,[20]; first compound 0.08 µM,0.667
same,relative viability,[20]; first compound 0.253 µM,0.741
same,relative viability,[20]; first compound 0.8 µM,0.723
same,relative viability,[20]; first compound 2.53 µM,0.699
same,relative viability,[20]; first compound 8 µM,0.64
same,relative viability,[21]; first compound 0.08 µM,0.785
same,relative viability,[21]; first compound 0.253 µM,0.72
same,relative viability,[21]; first compound 0.8 µM,0.501
same,relative viability,[21]; first compound 2.53 µM,0.724
same,relative viability,[21]; first compound 8 µM,0.617
same,relative viability,[22]; first compound 0.08 µM,0.732
same,relative viability,[22]; first compound 0.253 µM,0.896
same,relative viability,[22]; first compound 0.8 µM,0.7
same,relative viability,[22]; first compound 2.53 µM,0.665
same,relative viability,[22]; first compound 8 µM,0.664
same,relative viability,[23]; first compound 0.08 µM,0.5
same,relative viability,[23]; first compound 0.253 µM,0.577
same,relative viability,[23]; first compound 0.8 µM,0.621
same,relative viability,[23]; first compound 2.53 µM,0.268
same,relative viability,[23]; first compound 8 µM,0.431

# Source: the supplement of paper PMC10307832
